The results in this text go back to paper PMC5698418 (Nature Communications, 2017).

The subject of data set [1] is primary cortical neurons. The note with it: screen at 16.7 µM, excluded from data analysis. The protocol: All 319 compounds were initially tested at a final concentration of 16.7 µM with three biological replicates.
(§1) Screening of compounds in the chemogenomic library was carried out using DIV13 primary forebrain cortical neurons cultured on poly-L-lysine/laminin-coated 96-well plates (Ibidi USA, Madison, WI). Cells were seeded at a density of 30,000 cells per well and treated with the compound library and BDNF according to the experimental design presented in Fig. 3a. After experimental treatment, cells were processed for Arc and acetyl-H3K9 immunocytochemistry according to the protocol described above. Both antigens (Arc and acetyl-H3K9) were imaged using an IN Cell Analyzer 6000 imaging system and a ×40 objective. […] High-throughput quantification of nuclear Arc immunofluorescence signal was performed in a similar fashion than the low-throughput procedure described above but with the exception that acetyl-H3K9 was used as a nuclear mask to guide the automated quantification of nuclear Arc immunofluorescence signal.

Data set [2] deals with nuclear Arc in primary cortical neurons. The data set can be described thus: Low-throughput nuclear Arc immunofluorescence assay (coverslips, Map2-positive cells). In kind it is cell-based, mouse. The note with it: for effect on BDNF-induced increase of nuclear Arc: co-treated with BDNF 6 h, k252a 100 nM, ActD 2 ng ml−1, CHX 50 µg ml−1, U0126 10 µM. The source says:
Next, using fluorescent immunocytochemistry we assessed to what extent the observed induction of total Arc protein expression measured by western blotting corresponded to an accumulation of Arc in the nucleus of our cultured neurons. We chose to focus on nuclear Arc at this point based on the assumption that it would provide a robust and easily tractable phenotype for testing a large set of compounds with the help of a quantitative, single-cell level, high-content, image-based screen. […] On the other hand, many but not all of the neurons in cultures that were treated with BDNF for 6 h had high levels of Arc in their nuclei (Fig. 2b). […] Finally, to further evaluate the sensitivity of our method to quantify nuclear Arc expression, we tested four pharmacological inhibitors predicted to prevent BDNF-induced Arc expression. […] These experimental results with known mechanism of action compounds critically guided the design and interpretation of the chemogenomic screen performed next.
(§2) Indirect immunofluorescence detection of antigens was carried out using cortical neurons cultured on poly-L-lysine/laminin-coated coverslips in 24-well plates at a density of 0.1 × 10^7 per well. After experimental treatment, cells were washed twice with PBS and fixed for 30 min at room temperature with 4% paraformaldehyde in PBS. After fixation, cells were washed twice with PBS, permeabilized with PBST (PBS + 0.25% Triton X-100) for 20 min, blocked in blocking solution (PBS + 5% normal goat serum) for another 30 min, and finally incubated overnight at 4 °C with the first primary antibody in blocking solution. The next day, coverslips were extensively washed with PBS and incubated for 2 h at room temperature in the appropriate fluorophore-conjugated secondary antibody solution (Alexa 488- or Alexa 594-conjugated secondary antibody (Molecular Probes, Invitrogen) in blocking solution). After washing with PBS, the coverslips were incubated again overnight in primary antibody solution for the second antigen, and the procedure for conjugation of the fluorophore-conjugated secondary antibody was repeated as above. Finally, cell nuclei were counterstained with 4′,6-diamidino-2-phenylindole (DAPI), and coverslips were mounted on glass slides with ProLong Antifade reagent (Invitrogen).
Cells cultured on coverslips from three independent biological replicates were imaged with an IN Cell Analyzer 6000 high-performance laser-based confocal imaging system and a ×40 objective (GE Healthcare Life Sciences, Marlborough, MA). Image preparation, assembly, and analysis were performed with ImageJ (NIH) and Photoshop CS. Change in contrast and evenness of the illumination was applied equally to all images presented in the study. The following procedure was used for low-throughput measurements. First, original raw tiff files were opened in ImageJ, the nucleus of all neurons in the image was located based on Map2 immunostaining, then average pixel intensity corresponding to Arc immunofluorescence was measured for a 30-pixel spot positioned at the center of the nuclear compartment. Second, for each measure of Arc nuclear immunofluorescence pixel intensity, a measure of background pixel intensity from the same image channel was acquired and subsequently subtracted from the Arc nuclear immunofluorescence pixel intensity value. Finally, Arc immunofluorescence signal from untreated samples was used to establish an objective threshold (two standard deviations above the nuclear Arc immunofluorescence signal averaged from a representative population of untreated neurons) and allow comparison of nuclear Arc expression between different experimental conditions.

The subject of data set [3] is Arc mRNA. The data set can be described thus: Arc mRNA by real-time RT-PCR in primary cortical neurons. In kind it is cell-based, mouse. As to conditions: 6 h BDNF plus U0126 10 µM or NSC23766 200 µM. The protocol:
After experimental treatment, total RNA was isolated from primary cortical neuron cultures using the TRIzol method (Invitrogen). The concentration of total RNA was measured using a NanoDrop 1000 spectrophotometer (Thermo Fisher Scientific, Rockford, IL) and first-strand complementary DNA (cDNA) was synthesized using the iScript cDNA Synthesis Kit (Bio-Rad, Hercules, CA). Real-time PCRs were performed using gene-specific primers and monitored by quantification of SYBR Green I fluorescence using a Bio-Rad CFX96 Real-Time Detection System. Expression was normalized against Gapdh expression. The relative quantification from at least three biological replicates was performed using the comparative cycle threshold (∆∆CT) method.
Primers for real-time reverse transcription PCR experiments were: Arc, 5′-[…]-3′ (forward) and 5′-[…]-3′ (reverse); Map2, 5′-[…]-3′ (forward) and 5′-[…]-3′ (reverse); GluA1, 5′-[…]-3′ (forward) and 5′-[…]-3′ (reverse); GluA2, 5′-[…]-3′ (forward) and 5′-[…]-3′ (reverse); Gapdh, 5′-[…]-3′ (forward) and 5′-[…]-3′ (reverse).

Data set [4] relates to BDNF-induced nuclear Arc expression in primary cortical neurons. As to the kind of experiment: Chemogenomic screen: high-content image-based assay of BDNF-induced nuclear Arc expression (96-well). In kind it is cell-based, mouse. As to conditions: 16.7 µM, BDNF. Put shortly:
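Nuclear Arc immunofluorescence is quantified automatically within an acetyl-H3K9-defined nuclear mask from ×40 images. Cultures are DIV13 mouse forebrain cortical neurons seeded at 30,000 per well and exposed to BDNF plus compound at a final 16.7 µM, with triplicate biological replicates.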

The subject of data set [5] is acetyl-H3K9. As to the kind of experiment: Acetyl-H3K9 immunofluorescence in neuronal nuclei (multiplexed in screen). In kind it is cell-based, mouse. The protocol:
To increase the throughput of our pharmacological screening for modulators of Arc, the above mentioned assay was adapted to cultures of mouse primary cortical neurons in 96-well plates.
as §1

For data set [6], the system named is surface GluA1. As to the kind of experiment: Surface AMPAR (GluA1) imaging along dendrites. In kind it is cell-based, mouse. The note with it: 16.7 µM, 6 h with BDNF, vs untreated and BDNF alone; for BDNF: BDNF alone vs baseline. The protocol: Our procedure to label surface AMPARs containing the GluA1 subunit was adapted from two reports[14],[61]. Precisely, DIV14 primary cortical neurons cultured on coverslips were rinsed once with room temperature PBS^MC (PBS containing 0.5 mM CaCl2, 1 mM MgCl2, and 4% sucrose). Live cells were then incubated for 30 min at room temperature with GluA1 primary antibody solution (PBS^MC with antibody against the extracellular N-terminus of GluA1 (EMD Millipore Corp, clone RH95, 5.0 µg ml^−1)). Next, cells were rinsed twice with ice-cold PBS^MC followed by fixation with 4% paraformaldehyde + 4% sucrose solution for 15 min at room temperature. After fixation, neurons were washed with regular PBS and then incubated overnight with Map2 primary antibody solution (PBS with 0.125% Triton X-100, 5% normal goat serum, and anti-Map2 antibody) to label dendrites. Next day, coverslips were washed with PBS, incubated with appropriate secondary antibodies for 1 h at room temperature, and finally mounted on glass slides with ProLong Antifade reagent (Invitrogen).
(§3) Quantification of surface GluA1 puncta was performed according to the following strategy. First, overlapping digital images of GluA1 and Map2 immunostainings were collected using a Zeiss AxioObserver Z1 inverted microscope and ×63 oil immersion objective. Second, thresholding and segmentation based on the Map2 images was used to remove GluA1 signals outside of dendritic processes. Importantly, the same background/foreground cutoff threshold was used for images of all experimental conditions. Third, the length of dendrites for each image set was measured and recorded. Finally, distinct GluA1 foreground objects along dendrites >5 pixels were counted using the particle analysis tool in ImageJ and presented as the average number of GluA1 puncta per µm of dendrite length for each experimental condition.

The test system of data set [7] is Arc protein. The data set can be described thus: Western blot of total Arc protein in primary cortical neurons. In kind it is cell-based, mouse. As to conditions: 6 h; BDNF 100 ng ml−1 or 4AP 40 µM + Bic 50 µM. (In general: A western blot detects proteins with antibodies after separation by electrophoresis.)
Description: Forebrains of E16.5 C57BL/6 mouse embryos were dissected and then dissociated in trypsin solution for 15 min followed by three washes with phosphate-buffered saline (PBS). Single-cell suspension was achieved by gentle pipet trituration. Neurons were seeded in poly-L-lysine/laminin-coated six-well plates at a density of 2 × 10^6 per well and maintained in neurobasal medium containing B27 supplement (2%, Invitrogen, Grand Island, NY), penicillin (50 units ml^−1, Invitrogen), streptomycin (50 µg ml^−1, Invitrogen), and glutamine (1 mM, Sigma). For experiments involving BDNF (EMD Millipore Corps, Billerica, MA), the stock solution (2 ng µl^−1 in water) was added directly to the culture medium at a final concentration of 100 ng ml^−1 for the indicated period of time.
For western blot analyses, cells were collected by scraping in ice-cold radioimmunoprecipitation assay (RIPA) buffer (50 mM Tris-HCl (pH 8.0), 300 mM NaCl, 0.5% Igepal-630, 0.5% deoxycholic acid, 0.1% SDS, 1 mM EDTA) supplemented with a cocktail of protease inhibitors (Complete Protease Inhibitor without EDTA, Roche Applied Science, Indianapolis, IN) and phosphatase inhibitors (phosphatase inhibitor cocktail A, Santa Cruz Biotechnology). One volume of 2× Laemmli buffer (100 mM Tris-HCl (pH 6.8), 4% SDS, 0.15% bromophenol blue, 20% glycerol, 200 mM β-mercaptoethanol) was added and the extracts were boiled for 5 min. Samples were adjusted to an equal concentration after protein concentrations were determined using the BCA assay (Pierce, Thermo Fisher Scientific). Lysates were separated using SDS–PAGE and transferred to a nitrocellulose membrane. After transfer, the membrane was blocked in TBST (Tris-buffered saline + 0.1% Tween 20) supplemented with 5% nonfat powdered milk and probed with the indicated primary antibody at 4 °C overnight. After washing with TBST, the membrane was incubated with the appropriate secondary antibody and visualized using enhanced chemiluminescence (ECL) reagents according to the manufacturer’s guidelines (Pierce, Thermo Fisher Scientific).
The following procedure was used to quantify western blots. First, equal quantity of protein lysate was analyzed by SDS–PAGE for each biological replicate. Second, the exposure time of the film to the ECL chemiluminescence was the same for each biological replicate. Third, all the exposed films were scanned on a Brother MFC-J485DW scanner in grayscale at a resolution of 300 dpi. Fourth, the look-up table (LUT) of the scanned tiff images was inverted and the intensity of each band was individually measured using the selection tool and the histogram function in Adobe Photoshop CC 2015 software. […]
Data set [8] relates to Arc puncta in dendrites of primary cortical neurons. The data set can be described thus: Arc puncta along Map2-labeled dendrites (immunocytochemistry). In kind it is cell-based, mouse. The note with it: 16.7 µM with BDNF, vs untreated and BDNF alone; for BDNF: BDNF alone vs untreated.
Description: Chemical structure of each compound is presented on top. b Graphs show mean (n = 5) Arc/β-actin ratio (±SEM) for cells treated as in a. […] Tukey’s HSD post hoc test, *p < 0.05; **p < 0.01, ***p < 0.005; ****p < 0.0001. […] Representative captures of DIV14 mouse primary cortical neurons from each experimental condition co-immunostained for Arc (red fluorophore) and Map2 (green fluorophore). White arrowheads show examples of discrete Arc puncta. […] Tukey’s HSD post hoc test, *p < 0.05; ***p < 0.005; ****p < 0.0001
as §2, §3

Starred links: 1 amine or outer side, 2 acyl side, 3 side chain; linkers in the order of their positions; H or OH if unused. Positions of bridges follow the written chain, without caps; N, C: chain ends. Non-standard residues stand in square brackets, D forms with d. Residues, ends and D or L forms follow the SMILES beside them. Chains are numbered I, II in the order given. Actinocin(9to1) = Cc1c2oc3c(C)ccc(C(=O)[*:1])c3nc-2c(C(=O)[*:2])c(N)c1=O; NMeV = CN[C@H](C(=O)O)C(C)C; Sar = CNCC(=O)O

As to `CCCCN(CC)c1nc(C)nc2c1c(C)c(C)n2-c1c(C)cc(C)cc1C.Cl` [Antalarmin hydrochloride], the Reason for exclusion entry in data set [1] is “Cell death - toxicity”.
On to `CNCC[C@H](Oc1cccc2ccccc12)c1cccs1` [Duloxetine], for which, in data set [1], the Reason for exclusion entry is listed as “Cell death - toxicity”.
On the same count and under the same terms, for `Oc1cc(O)c2c(c1)O[C@H](c1cc(O)c(O)c(O)c1)[C@H](O)C2` [Epigallocatechin, Epigallocatechol, Epigallocatechin] the value was “Cell death - toxicity”.
Take `COC(=O)[C@@]1(O)C[C@H]2O[C@]1(C)n1c3ccccc3c3c4c(c5c6ccccc6n2c5c31)C(=O)NC4` [K252a]: the “effect on BDNF-induced increase of nuclear Arc” value (from here on “effect on BDNF-induced increase”) in data set [2] is on record as “effectively prevented the increase of nuclear Arc”.
As to `CCN(CC)CCCC(C)Nc1nc(C)cc(Nc2ccc3nc(C)cc(N)c3c2)n1` (centres unmarked) [NSC23766], the “effect on BDNF-induced Arc mRNA expression (RT-qPCR)” value in data set [3] is “prevented BDNF-induced Arc expression but not Rac1 inhibition by NSC23766”.
On to `CC(C)COc1ccc(CNC(=O)N(Cc2ccc(F)cc2)C2CCN(C)CC2)cc1` [Pimavanserin (ACP-103), Pimavanserin], for which the Reason for exclusion entry in data set [1] is listed as “Cell death - toxicity”.
Regarding `C[C@@H](NC(=O)C(=O)c1c[nH]c2ccc([N+](=O)[O-])cc12)c1ccccc1` [TCS 1205], the Reason for exclusion entry in data set [1] was “Cell death - toxicity”.
Consider `N#CC(=C(/N)Sc1ccccc1N)/C(C#N)=C(/N)Sc1ccccc1N` [U0126], for which, in data set [3], the “effect on BDNF-induced Arc mRNA expression (RT-qPCR)” value was “prevented BDNF-induced Arc expression”. Also, in data set [2], the “effect on BDNF-induced increase” value was “effectively prevented the increase of nuclear Arc”.
`COc1cc2c(NC3CCN(C(C)C)CC3)nc(C3CCCCC3)nc2cc1OCCCN1CCCC1` [UNC 0638]: the Reason for exclusion result in data set [1] is on record as “Cell death - toxicity”.
With `Cc1c2oc3c(C)ccc(C(=O)N[C@@H]4C(=O)N[C@H](C(C)C)C(=O)N5CCC[C@H]5C(=O)N(C)CC(=O)N(C)[C@@H](C(C)C)C(=O)O[C@@H]4C)c3nc-2c(C(=O)N[C@@H]2C(=O)N[C@H](C(C)C)C(=O)N3CCC[C@H]3C(=O)N(C)CC(=O)N(C)[C@@H](C(C)C)C(=O)O[C@@H]2C)c(N)c1=O` [actinomycin D] (I: T[dV]P[Sar][NMeV] / II: T[dV]P[Sar][NMeV]; ester I:1-I:C, II:1-II:C; linker I:N-II:N via Actinocin(9to1)), in data set [2], the “effect on BDNF-induced increase” value is listed as “effectively prevented the increase of nuclear Arc”.
On to `C[C@@H]1C[C@@H]([C@H](O)CC2CC(=O)NC(=O)C2)C(=O)[C@@H](C)C1` [cycloheximide], for which the “effect on BDNF-induced increase” value in data set [2] is “effectively prevented the increase of nuclear Arc”.
For `Nc1ccccc1NC(=O)c1ccc(CNC(=O)OCc2cccnc2)cc1` [entinostat, reference compound], the “occurrence of neuronal nuclei with above threshold nuclear Arc immunofluorescence signal, factor in relation to control (DMSO plus BDNF)” value in data set [4] is at least 1.5. The “impact on acetyl-H3K9 immunofluorescence (Z-score)” value in data set [5] (screen, 16.7 µM) is given as “strong impact”.

B1: BDNF: recombinant brain-derived neurotrophic factor, 100 ng ml−1 (protein, UniProt P23560 19-247, looked up)
Neurotrophic factor BDNF …: APMKEANIRGQGGLAYPGVRTHGTLESVNGPKAGSRGLTSLADTFEHVIEELLDEDQKVRPNEENNKDADLYTSRVMLSSQVPLEPPLLFLLEEYKNYLDAANMSMRVRRHSDPARRGELSVCDSISEWVTAADKKTAVDMSGGTVTVLEKVPVSKGQLKQYFYETKCNPMGYTKEGCRGIDKRHWNSQCRTTQSYVRALTMDSKKRIGWRFIRIDTSCVCTLTIKRGR
Turning to B1, the “acetyl-H3K9 immunofluorescence intensity levels in primary cortical neurons” value in data set [5] (BDNF 6 h) is “unaffected”. For the same molecule, the “surface GluA1 puncta per dendrite µm” value in data set [6] is recorded as “did not influence, in one way or the other, the number of GluA1 puncta”. Also, in data set [7], the “Arc protein abundance vs untreated control (western blot)” value is reported as “significantly more Arc protein”. In addition, the “neurons with Arc-specific nuclear average pixel intensity above threshold (> 2σ of untreated)” value in data set [2] (BDNF 100 ng ml−1, 6 h, n = 331 neurons) was 17.5%. Further, in data set [2] (BDNF 24 h, n = 334), the “neuronal nuclei with above threshold average nuclear Arc signal (> 2σ)” value is recorded as 4.2%. Further, in data set [8], the “number of Arc puncta in dendritic projections” value is listed as “did not observe a significant difference”.
